The NIST ThermoML archive (doi:10.1016/j.tca.2017.12.013)

Test: molar heat capacity at constant pressure
Settings: 101.33 kPa, DSC

[Ag+].[Ag+].[S-2] [silver sulfide]
Settings | molar heat capacity at constant pressure [J/K/mol]
299.71 K, Crystal 3 | 73.92
300.71 K, Crystal 3 | 74.02
301.71 K, Crystal 3 | 74.12
302.71 K, Crystal 3 | 74.21
303.71 K, Crystal 3 | 74.31
304.71 K, Crystal 3 | 74.4
305.71 K, Crystal 3 | 74.46
306.71 K, Crystal 3 | 74.53
307.71 K, Crystal 3 | 74.62
308.71 K, Crystal 3 | 74.69
309.71 K, Crystal 3 | 74.77
310.71 K, Crystal 3 | 74.85
311.71 K, Crystal 3 | 74.92
312.71 K, Crystal 3 | 75.14
313.71 K, Crystal 3 | 75.21
314.71 K, Crystal 3 | 75.29
315.71 K, Crystal 3 | 75.36
316.71 K, Crystal 3 | 75.42
317.71 K, Crystal 3 | 75.49
318.71 K, Crystal 3 | 75.53
319.71 K, Crystal 3 | 75.58
320.71 K, Crystal 3 | 75.65
321.71 K, Crystal 3 | 75.71
322.71 K, Crystal 3 | 75.78
323.71 K, Crystal 3 | 75.84
324.71 K, Crystal 3 | 75.9
325.71 K, Crystal 3 | 75.97
326.71 K, Crystal 3 | 76.03
327.71 K, Crystal 3 | 76.09
328.71 K, Crystal 3 | 76.14
329.71 K, Crystal 3 | 76.2
330.71 K, Crystal 3 | 76.26
331.71 K, Crystal 3 | 76.31
332.71 K, Crystal 3 | 76.37
333.71 K, Crystal 3 | 76.42
334.71 K, Crystal 3 | 76.48
335.71 K, Crystal 3 | 76.53
336.71 K, Crystal 3 | 76.58
337.71 K, Crystal 3 | 76.63
338.71 K, Crystal 3 | 76.68
339.71 K, Crystal 3 | 76.74
340.71 K, Crystal 3 | 76.79
341.71 K, Crystal 3 | 76.84
342.71 K, Crystal 3 | 76.89
343.71 K, Crystal 3 | 76.93
344.71 K, Crystal 3 | 76.98
345.71 K, Crystal 3 | 77.03
346.71 K, Crystal 3 | 77.08
347.71 K, Crystal 3 | 77.13
348.71 K, Crystal 3 | 77.18
349.71 K, Crystal 3 | 77.22
350.71 K, Crystal 3 | 77.27
351.71 K, Crystal 3 | 77.32
352.71 K, Crystal 3 | 77.37
353.71 K, Crystal 3 | 77.42
354.71 K, Crystal 3 | 77.46
355.71 K, Crystal 3 | 77.51
356.71 K, Crystal 3 | 77.56
357.71 K, Crystal 3 | 77.61
358.71 K, Crystal 3 | 77.66
359.71 K, Crystal 3 | 77.71
360.71 K, Crystal 3 | 77.76
361.71 K, Crystal 3 | 77.81
362.71 K, Crystal 3 | 77.86
363.71 K, Crystal 3 | 77.91
364.71 K, Crystal 3 | 77.96
365.71 K, Crystal 3 | 78.01
366.71 K, Crystal 3 | 78.07
367.71 K, Crystal 3 | 78.12
368.71 K, Crystal 3 | 78.17
369.71 K, Crystal 3 | 78.23
370.71 K, Crystal 3 | 78.29
371.71 K, Crystal 3 | 78.34
372.71 K, Crystal 3 | 78.4
373.71 K, Crystal 3 | 78.46
374.71 K, Crystal 3 | 78.52
375.71 K, Crystal 3 | 78.58
376.71 K, Crystal 3 | 78.64
377.71 K, Crystal 3 | 78.7
378.71 K, Crystal 3 | 78.76
379.71 K, Crystal 3 | 78.83
380.71 K, Crystal 3 | 78.89
381.71 K, Crystal 3 | 78.96
382.71 K, Crystal 3 | 79.03
383.71 K, Crystal 3 | 79.1
384.71 K, Crystal 3 | 79.17
385.71 K, Crystal 3 | 79.24
386.71 K, Crystal 3 | 79.31
387.71 K, Crystal 3 | 79.39
388.71 K, Crystal 3 | 79.46
389.71 K, Crystal 3 | 79.54
390.71 K, Crystal 3 | 79.62
391.71 K, Crystal 3 | 79.7
392.71 K, Crystal 3 | 79.79
393.71 K, Crystal 3 | 79.87
394.71 K, Crystal 3 | 79.96
395.71 K, Crystal 3 | 80.04
396.71 K, Crystal 3 | 80.13
397.71 K, Crystal 3 | 80.23
398.71 K, Crystal 3 | 80.32
399.71 K, Crystal 3 | 80.41
400.71 K, Crystal 3 | 80.5
401.71 K, Crystal 3 | 80.6
402.71 K, Crystal 3 | 80.69
403.71 K, Crystal 3 | 80.78
404.71 K, Crystal 3 | 80.88
405.71 K, Crystal 3 | 80.98
406.71 K, Crystal 3 | 81.09
407.71 K, Crystal 3 | 81.19
408.71 K, Crystal 3 | 81.3
409.71 K, Crystal 3 | 81.41
410.71 K, Crystal 3 | 81.52
411.71 K, Crystal 3 | 81.63
412.71 K, Crystal 3 | 81.75
413.71 K, Crystal 3 | 81.87
414.71 K, Crystal 3 | 81.99
415.71 K, Crystal 3 | 82.11
416.71 K, Crystal 3 | 82.24
417.71 K, Crystal 3 | 82.37
418.71 K, Crystal 3 | 82.5
419.71 K, Crystal 3 | 82.64
420.71 K, Crystal 3 | 82.77
421.71 K, Crystal 3 | 82.91
422.71 K, Crystal 3 | 83.06
423.71 K, Crystal 3 | 83.2
424.71 K, Crystal 3 | 83.35
425.71 K, Crystal 3 | 83.51
426.71 K, Crystal 3 | 83.66
427.71 K, Crystal 3 | 83.82
428.71 K, Crystal 3 | 83.98
429.71 K, Crystal 3 | 84.15
430.71 K, Crystal 3 | 84.32
431.71 K, Crystal 3 | 84.49
432.71 K, Crystal 3 | 84.66
433.71 K, Crystal 3 | 84.84
434.71 K, Crystal 3 | 85.01
435.71 K, Crystal 3 | 85.19
436.71 K, Crystal 3 | 85.36
437.71 K, Crystal 3 | 85.54
438.71 K, Crystal 3 | 85.72
439.71 K, Crystal 3 | 85.91
440.71 K, Crystal 3 | 86.2
441.71 K, Crystal 3 | 86.6
442.71 K, Crystal 3 | 87.1
443.71 K, Crystal 3 | 87.6
444.71 K, Crystal 3 | 88.38
446.71 K, Crystal 3 | 90.5
447.71 K, Crystal 3 | 92.95
448.71 K, Crystal 3 | 93.65
449.71 K, Crystal 3 | 94.94
461.57 K, Crystal 2 | 90.56
462.57 K, Crystal 2 | 90.49
463.57 K, Crystal 2 | 90.42
464.57 K, Crystal 2 | 90.35
465.57 K, Crystal 2 | 90.28
466.57 K, Crystal 2 | 90.21
467.57 K, Crystal 2 | 90.13
468.57 K, Crystal 2 | 90.06
469.57 K, Crystal 2 | 89.98
470.57 K, Crystal 2 | 89.9
471.57 K, Crystal 2 | 89.82
472.57 K, Crystal 2 | 89.75
473.57 K, Crystal 2 | 89.67
474.57 K, Crystal 2 | 89.59
475.57 K, Crystal 2 | 89.51
476.57 K, Crystal 2 | 89.43
477.57 K, Crystal 2 | 89.35
478.57 K, Crystal 2 | 89.28
479.57 K, Crystal 2 | 89.2
480.57 K, Crystal 2 | 89.12
481.57 K, Crystal 2 | 89.05
482.57 K, Crystal 2 | 88.97
483.57 K, Crystal 2 | 88.9
484.57 K, Crystal 2 | 88.83
485.57 K, Crystal 2 | 88.76
486.57 K, Crystal 2 | 88.69
487.57 K, Crystal 2 | 88.62
488.57 K, Crystal 2 | 88.55
489.57 K, Crystal 2 | 88.48
490.57 K, Crystal 2 | 88.42
491.57 K, Crystal 2 | 88.35
492.57 K, Crystal 2 | 88.29
493.57 K, Crystal 2 | 88.23
494.57 K, Crystal 2 | 88.17
495.57 K, Crystal 2 | 88.11
496.57 K, Crystal 2 | 88.06
497.57 K, Crystal 2 | 88
498.57 K, Crystal 2 | 87.95
499.57 K, Crystal 2 | 87.9
500.57 K, Crystal 2 | 87.85
501.57 K, Crystal 2 | 87.8
502.57 K, Crystal 2 | 87.76
503.57 K, Crystal 2 | 87.71
504.57 K, Crystal 2 | 87.67
505.57 K, Crystal 2 | 87.62
506.57 K, Crystal 2 | 87.58
507.57 K, Crystal 2 | 87.54
508.57 K, Crystal 2 | 87.54
509.57 K, Crystal 2 | 87.54
510.57 K, Crystal 2 | 87.54
511.57 K, Crystal 2 | 87.57
512.57 K, Crystal 2 | 87.59
513.57 K, Crystal 2 | 87.61
514.57 K, Crystal 2 | 87.61
515.57 K, Crystal 2 | 87.61
516.57 K, Crystal 2 | 87.62
517.57 K, Crystal 2 | 87.62
518.57 K, Crystal 2 | 87.62
519.57 K, Crystal 2 | 87.64
520.57 K, Crystal 2 | 87.64
521.82 K, Crystal 2 | 87.58
522.82 K, Crystal 2 | 87.56
523.82 K, Crystal 2 | 87.54
524.82 K, Crystal 2 | 87.52
525.82 K, Crystal 2 | 87.5
526.82 K, Crystal 2 | 87.48
527.82 K, Crystal 2 | 87.46
528.82 K, Crystal 2 | 87.45
529.82 K, Crystal 2 | 87.43
530.82 K, Crystal 2 | 87.42
531.82 K, Crystal 2 | 87.4
532.82 K, Crystal 2 | 87.39
533.82 K, Crystal 2 | 87.38
534.82 K, Crystal 2 | 87.37
535.82 K, Crystal 2 | 87.36
536.82 K, Crystal 2 | 87.35
537.82 K, Crystal 2 | 87.34
538.82 K, Crystal 2 | 87.33
539.82 K, Crystal 2 | 87.32
540.82 K, Crystal 2 | 87.31
541.82 K, Crystal 2 | 87.3
542.82 K, Crystal 2 | 87.29
543.82 K, Crystal 2 | 87.28
544.82 K, Crystal 2 | 87.27
545.82 K, Crystal 2 | 87.26
546.82 K, Crystal 2 | 87.26
547.82 K, Crystal 2 | 87.25
548.82 K, Crystal 2 | 87.24
549.82 K, Crystal 2 | 87.23
550.82 K, Crystal 2 | 87.22
551.82 K, Crystal 2 | 87.22
552.82 K, Crystal 2 | 87.21
553.82 K, Crystal 2 | 87.2
554.82 K, Crystal 2 | 87.19
555.82 K, Crystal 2 | 87.18
556.82 K, Crystal 2 | 87.17
557.82 K, Crystal 2 | 87.17
558.82 K, Crystal 2 | 87.16
559.82 K, Crystal 2 | 87.15
560.82 K, Crystal 2 | 87.14
561.82 K, Crystal 2 | 87.13
562.82 K, Crystal 2 | 87.12
563.82 K, Crystal 2 | 87.11
564.82 K, Crystal 2 | 87.1
565.82 K, Crystal 2 | 87.09
566.82 K, Crystal 2 | 87.07
567.82 K, Crystal 2 | 87.06
568.82 K, Crystal 2 | 87.05
569.82 K, Crystal 2 | 87.04
570.82 K, Crystal 2 | 87.02
571.82 K, Crystal 2 | 87.01
572.82 K, Crystal 2 | 87
573.82 K, Crystal 2 | 86.98
574.82 K, Crystal 2 | 86.97
575.82 K, Crystal 2 | 86.95
576.82 K, Crystal 2 | 86.94
577.82 K, Crystal 2 | 86.92
578.82 K, Crystal 2 | 86.91
579.82 K, Crystal 2 | 86.89
580.82 K, Crystal 2 | 86.87
581.82 K, Crystal 2 | 86.85
582.82 K, Crystal 2 | 86.83
583.82 K, Crystal 2 | 86.82
584.82 K, Crystal 2 | 86.8
585.82 K, Crystal 2 | 86.78
586.82 K, Crystal 2 | 86.76
587.82 K, Crystal 2 | 86.74
588.82 K, Crystal 2 | 86.72
589.82 K, Crystal 2 | 86.7
590.82 K, Crystal 2 | 86.67
591.82 K, Crystal 2 | 86.65
592.82 K, Crystal 2 | 86.63
593.82 K, Crystal 2 | 86.61
594.82 K, Crystal 2 | 86.61
595.82 K, Crystal 2 | 86.63
596.82 K, Crystal 2 | 86.62
597.82 K, Crystal 2 | 86.62
598.82 K, Crystal 2 | 86.6
599.82 K, Crystal 2 | 86.6
600.82 K, Crystal 2 | 86.58
601.82 K, Crystal 2 | 86.55
602.82 K, Crystal 2 | 86.53
603.82 K, Crystal 2 | 86.5
604.82 K, Crystal 2 | 86.48
605.82 K, Crystal 2 | 86.45
606.82 K, Crystal 2 | 86.43
607.82 K, Crystal 2 | 86.4
608.82 K, Crystal 2 | 86.38
609.82 K, Crystal 2 | 86.35
610.82 K, Crystal 2 | 86.33
611.82 K, Crystal 2 | 86.3
612.82 K, Crystal 2 | 86.28
613.82 K, Crystal 2 | 86.25
614.82 K, Crystal 2 | 86.23
615.82 K, Crystal 2 | 86.2
616.82 K, Crystal 2 | 86.18
